Data set [1] can be described thus: Nonenzymatic stability of 1 (dBet1) in the autosampler in four solutions during LC-MS. The data set is classed as physicochemical. The conditions noted are these: for nonenzymatic stability in autosampler: 12 h. Here is the method:
dBet1 (1) (10 mM in DMSO) was diluted 1:1000 in PBS/ACN (50:50, vol/vol) to afford a final concentration of 10 μM; 100 μL was drawn and dried under a gentle nitrogen stream at 40 °C for 30 min. After that evaporation was completed, the dry residue was reconstituted with 100 μL of DMSO. Additional three solutions of dBet1 (1) (10 μM) were prepared in PBS, PBS/ACN (50:50, vol/vol), and DMSO. The four solutions were stored into the autosampler of the LC apparatus at 37 °C for 12 h. Injections (2 μL) were programmed every 3 h.

Data set [2] is described as follows: Metabolic stability in cryopreserved human hepatocytes. The conditions noted are these: human, cryopreserved human hepatocytes (pooled, suspension). In kind it is in vitro ADME.
The target in data set [3] is CYP3A4 (Homo sapiens, UniProt P08684). Description: in vitro. The conditions noted are these: pH 7.4.
CYP3A4, sequence (P08684 whole entry): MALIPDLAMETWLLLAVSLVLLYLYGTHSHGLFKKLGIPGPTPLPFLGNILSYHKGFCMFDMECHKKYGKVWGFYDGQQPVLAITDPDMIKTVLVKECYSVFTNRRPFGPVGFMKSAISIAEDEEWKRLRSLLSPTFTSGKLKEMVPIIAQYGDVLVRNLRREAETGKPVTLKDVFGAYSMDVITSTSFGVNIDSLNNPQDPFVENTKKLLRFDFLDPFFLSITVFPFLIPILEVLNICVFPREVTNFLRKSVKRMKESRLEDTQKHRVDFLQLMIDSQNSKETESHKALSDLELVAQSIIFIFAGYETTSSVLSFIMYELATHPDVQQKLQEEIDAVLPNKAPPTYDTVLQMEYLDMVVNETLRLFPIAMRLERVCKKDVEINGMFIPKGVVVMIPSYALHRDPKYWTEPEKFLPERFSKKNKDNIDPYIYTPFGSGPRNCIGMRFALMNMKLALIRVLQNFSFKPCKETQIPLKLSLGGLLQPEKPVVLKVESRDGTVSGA
Data set [4] addresses T1, aldehyde oxidase (hAOX, AOX1) (Homo sapiens, UniProt Q06278).
T1 construct: human aldehyde oxidase (hAOX), a cytosolic drug-metabolizing enzyme expressed in the human liver; tissue Gibco; host or cells: human liver cytosol
T1 sequence (Q06278 1-1338): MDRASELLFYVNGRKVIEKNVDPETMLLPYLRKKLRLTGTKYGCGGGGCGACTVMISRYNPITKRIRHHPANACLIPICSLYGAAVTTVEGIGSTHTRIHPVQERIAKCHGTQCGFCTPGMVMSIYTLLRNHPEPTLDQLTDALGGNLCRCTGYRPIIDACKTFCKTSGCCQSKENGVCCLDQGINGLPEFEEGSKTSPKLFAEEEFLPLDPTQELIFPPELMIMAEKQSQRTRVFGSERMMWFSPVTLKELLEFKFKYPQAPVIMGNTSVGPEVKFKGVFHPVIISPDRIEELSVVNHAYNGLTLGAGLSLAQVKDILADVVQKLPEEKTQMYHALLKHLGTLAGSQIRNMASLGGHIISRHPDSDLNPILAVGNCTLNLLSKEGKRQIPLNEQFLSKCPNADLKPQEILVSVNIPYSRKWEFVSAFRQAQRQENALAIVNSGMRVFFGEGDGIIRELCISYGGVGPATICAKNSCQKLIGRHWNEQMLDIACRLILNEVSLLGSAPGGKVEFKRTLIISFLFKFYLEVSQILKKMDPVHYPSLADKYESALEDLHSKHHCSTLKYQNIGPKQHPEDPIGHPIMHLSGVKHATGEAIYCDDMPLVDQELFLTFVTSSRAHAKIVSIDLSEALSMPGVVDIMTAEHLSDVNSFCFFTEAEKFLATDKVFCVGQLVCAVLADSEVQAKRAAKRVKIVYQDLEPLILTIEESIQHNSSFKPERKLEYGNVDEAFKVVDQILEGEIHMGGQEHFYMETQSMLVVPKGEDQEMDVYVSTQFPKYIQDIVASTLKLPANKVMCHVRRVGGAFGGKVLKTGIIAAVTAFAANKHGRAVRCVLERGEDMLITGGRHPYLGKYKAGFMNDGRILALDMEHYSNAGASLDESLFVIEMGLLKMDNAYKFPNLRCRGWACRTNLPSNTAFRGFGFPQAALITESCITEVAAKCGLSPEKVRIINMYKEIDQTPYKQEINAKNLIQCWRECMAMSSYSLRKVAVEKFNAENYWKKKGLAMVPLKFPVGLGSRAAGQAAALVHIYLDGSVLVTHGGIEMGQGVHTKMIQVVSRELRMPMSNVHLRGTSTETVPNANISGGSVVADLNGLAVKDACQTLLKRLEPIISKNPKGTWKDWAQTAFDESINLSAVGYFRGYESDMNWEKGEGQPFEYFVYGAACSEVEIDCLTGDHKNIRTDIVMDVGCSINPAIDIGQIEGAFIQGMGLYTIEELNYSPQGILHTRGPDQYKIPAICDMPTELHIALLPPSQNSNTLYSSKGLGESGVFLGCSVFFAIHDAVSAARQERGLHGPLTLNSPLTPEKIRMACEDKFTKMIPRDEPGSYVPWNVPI
Description: Metabolism in human liver cytosol with/without hydralazine (hAOX). The data set is classed as in vitro ADME. Particulars: human, human liver cytosol, pH 7.4; Figure 7A.

For data set [5], the target named is T2, human aldehyde oxidase (hAOX) in human liver cytosol (Homo sapiens, UniProt Q06278).
T2 construct: human aldehyde oxidase (hAOX), a cytosolic drug-metabolizing enzyme expressed in the human liver; tissue Gibco; host or cells: human liver cytosol
T2 sequence (Q06278 1-1338): T1 sequence (Q06278 1-1338)
Described as above. In kind it is in vitro ADME. The conditions noted are these: for reactions observed in human liver cytosol: 30, 60, 90 min, absence and presence of hydralazine, both in the VHL ligand moiety; for hAOX percentage of substrate left at the final time point of analysis / hAOX t1/2: supplement CSV; for hAOX percentage of substrate left at the final time point of analysis: in brackets, final time point 90 min; for hAOX t1/2: human liver cytosol 1 mg/mL, up to 90 min.

Setting [6] is: Figures 3-5, cryopreserved human hepatocytes, read-out: half-life (t1/2).
Where [7] appears, read: Table S1, PROTACs, cryopreserved human hepatocytes, read-out: t1/2.
The mark [8] stands for this setting: supplement CSV, human hepatocytes, read-out: HLH t1/2.

Molecules are shown by their SMILES. Read-outs that look alike come from different tables or passages of the source.

With `Cc1sc2c(c1C)C(c1ccc(Cl)cc1)=N[C@@H](CC(=O)NCCCCNC(=O)COc1cccc3c1C(=O)N(C1CCC(=O)NC1=O)C3=O)c1nnc(C)n1-2` (stereo partly shown) [Compound 1, dBet1], the “nonenzymatic stability in autosampler” value is “Degradation was also observed” in data set [1] (PBS/ACN (1:1 v/v), 37 °C); “very stable over time” in data set [1] (pure DMSO, 37 °C); “rapidly degrades” in data set [1] (pure PBS pH 7.4, 37 °C). Moreover, the “substrate degradation within the first three hours” value in data set [1] (PBS/ACN-DMSO protocol, autosampler 37 °C) is “about 10%”. In addition, the half-life at 1 µM in data set [2] (setting [6]), in data set [2] (setting [7]) and in data set [2] (setting [8]) was 2.25 h each time.

As for `Cc1sc2c(c1C)C(c1ccc(Cl)cc1)=N[C@@H](CC(=O)NCCOCCOCCNc1cccc3c1C(=O)N(C1CCC(=O)NC1=O)C3=O)c1nnc(C)n1-2` (stereo partly drawn) [Compound 5, 2-((S)-4-(4-Chlorophenyl)-2,3,9-trimethyl-6H-thieno[3,2-f][1,2,4]triazolo[4,3-a][1,4]diazepin-6-yl)-N-(2-(2-(2-((2-(2,6-dioxopiperidin-3-yl)-1,3-dioxoisoindolin-4-yl)amino)ethoxy)ethoxy)ethyl)acetamide], the half-life at 1 µM worked out at 0.0183 h in data set [3], 0.823 h in data set [2] (setting [7]) and 0.823 h in data set [2] (setting [8]).

For the compound `O=C(COc1c(-c2csc(N3CCOCC3)n2)ccc(F)c1F)NCCCCCCNc1cccc2c1C(=O)N(C1CCC(=O)NC1=O)C2=O` (stereo not shown) [Compound 29, 2-(2,3-Difluoro-6-(2-morpholinothiazol-4-yl)phenoxy)-N-(6-((2-(2,6-dioxopiperidin-3-yl)-1,3-dioxoisoindolin-4-yl)amino)hexyl)acetamide], the values for the half-life at 1 µM in data set [3], in data set [2] (setting [7]) and in data set [2] (setting [8]) were 0.123 h, 0.892 h and 0.892 h, respectively.

For the compound `Cc1ncsc1-c1ccc([C@H](C)NC(=O)[C@@H]2C[C@@H](O)CN2C(=O)[C@@H](NC(=O)CCCCNC(=O)COc2c(-c3csc(N4CCOCC4)n3)ccc(F)c2F)C(C)(C)C)cc1` [Compound 33], the half-life at 1 µM in data set [4] is greater than 1.5 h; in data set [2] (setting [6]) it was 1.24 h; in data set [2] (setting [7]) it was 1.24 h; in data set [2] (setting [8]), 1.24 h. For the same compound, the “reactions observed in human liver cytosol” value in data set [5] is “the hydrolysis of an amide and an oxidation”. For the same compound, the “hAOX percentage of substrate left at the final time point of analysis” value in data set [5] was 83.5%. Also, in data set [5], the “hAOX t1/2” value was greater than 1.5 h.

As for `Cc1ncsc1-c1ccc([C@H](C)NC(=O)[C@@H]2C[C@@H](O)CN2C(=O)[C@@H](NC(=O)CCCCN(C)C(=O)COc2c(-c3csc(N4CCOCC4)n3)ccc(F)c2F)C(C)(C)C)cc1` [Compound 34], the half-life at 1 µM is greater than 1.5 h in data set [4], 1.43 h in data set [2] (setting [7]) and 1.43 h in data set [2] (setting [8]). Further, in data set [5], the “reactions observed in human liver cytosol” value was “the hydrolysis of an amide and an oxidation”. In data set [5], the “hAOX percentage of substrate left at the final time point of analysis” value is reported as 83.4%. The “hAOX t1/2” value in data set [5] was greater than 1.5 h.

As to `Cc1ncsc1-c1ccc([C@H](C)NC(=O)[C@@H]2C[C@@H](O)CN2C(=O)[C@@H](NC(=O)CCCCCCNC(=O)COc2c(-c3csc(N4CCOCC4)n3)ccc(F)c2F)C(C)(C)C)cc1` [Compound 35], the half-life at 1 µM in data set [3] came out at 0.0283 h; in data set [2] (setting [6]), 0.417 h; in data set [2] (setting [7]), 0.417 h; in data set [2] (setting [8]), 0.417 h.

For `Cc1ncsc1-c1ccc([C@H](CC(=O)NCCCCCCNC(=O)COc2c(-c3csc(N4CCOCC4)n3)ccc(F)c2F)NC(=O)[C@@H]2C[C@@H](O)CN2C(=O)[C@@H](NC(=O)C2(F)CC2)C(C)(C)C)cc1` [Compound 40], the half-life at 1 µM in data set [3] was 0.377 h; in data set [2] (setting [6]) it was 1.11 h; in data set [2] (setting [7]) it was 1.11 h; in data set [2] (setting [8]) it was 1.11 h.

Values taken from PMC8015227, “Understanding the Metabolism of Proteolysis Targeting Chimeras (PROTACs): The Next Step toward Pharmaceutical Applications” (Journal of Medicinal Chemistry, 2020).
